Laboratory results as given in US20080300258A1, “ANHYDROUS CIPROFLOXACIN HYDROCHLORIDE” (priority 2007, published 2008).

Settings: eight weeks of storage at 40 degrees C., relative humidity 75%

With `O=C(O)c1cn(C2CC2)c2cc(N3CCNCC3)c(F)cc2c1=O` [1-cyclopropyl-6-fluoro-1,4-dihydro-4-oxo-7-(1-piperazinyl)-3-quinolinecarboxylic acid] the decomposition on storage was “no significant decomposition was observed” and the “water intake on storage” value was “No water intake was observed”.
